Experimental data taken from patent US20250145665A1, “MACROCYCLIC PEPTIDES USEFUL AS MODULATORS OF TNF ALPHA” (Bristol-Myers Squibb Company, priority 2023, published 2025).
Like-named read-outs stand apart in the source and are kept apart here. Starred links: 1 amine or outer side, 2 acyl side, 3 side chain; linkers in the order of their positions; H or OH if unused. Positions of bridges follow the written chain, without caps; N, C: chain ends. Non-standard residues stand in square brackets, D forms with d. Residues, ends and D or L forms follow the SMILES beside them. *: point of attachment. Bip(4'-(3-HOOC-benzamido)) = N[C@@H](Cc1ccc(-c2ccc(NC(=O)c3cccc(C(=O)O)c3)cc2)cc1)C(=O)O; X10 = Cn1cc(C(=O)Nc2ccc(-c3ccc(C[C@H](N[*:1])C(=O)[*:2])cc3)cc2)c2ccccc21; X74 = Cn1nc(C(=O)Nc2ccc(-c3ccc(C[C@H](N[*:1])C(=O)[*:2])cc3)cc2)c2cccnc21; X78 = O=C(Nc1ccc(-c2ccc(C[C@H](N[*:1])C(=O)[*:2])cc2)cc1)c1n[nH]c2ccccc12; X5 = Cn1nc(C(=O)Nc2ccc(-c3ccc(C[C@H](N[*:1])C(=O)[*:2])cc3)cc2)c2ccccc21; X9 = Cn1nc(C(=O)Nc2cccc(-c3ccc(C[C@H](N[*:1])C(=O)[*:2])cc3)c2)c2cccnc21; X17 = O=C(Nc1cccc(-c2ccc(C[C@H](N[*:1])C(=O)[*:2])cc2)c1)c1coc2ccccc12; X47 = O=C(Nc1ccc(-c2ccc(C[C@H](N[*:1])C(=O)[*:2])cc2)cc1)c1coc2ccccc12; Bip(4'-NHBz) = N[C@@H](Cc1ccc(-c2ccc(NC(=O)c3ccccc3)cc2)cc1)C(=O)O; Bip(4'-NH) = O=C([C@H](Cc1ccc(-c2ccc(N[*:3])cc2)cc1)N[*:1])[*:2]; Bip(4'-CONHMe) = CNC(=O)c1ccc(-c2ccc(C[C@H](N)C(=O)O)cc2)cc1; Bip(4'-COOH) = N[C@@H](Cc1ccc(-c2ccc(C(=O)O)cc2)cc1)C(=O)O; Bip(4'-NHAc) = CC(=O)Nc1ccc(-c2ccc(C[C@H](N)C(=O)O)cc2)cc1; Ala(morpholin-4-yl) = N[C@@H](CN1CCOCC1)C(=O)O; Benzoyl(3-Ph) = O=C(c1cccc(-c2ccccc2)c1)*; Bip = N[C@@H](Cc1ccc(-c2ccccc2)cc1)C(=O)O; 2Pal = N[C@@H](Cc1ccccn1)C(=O)O; Cha = N[C@@H](CC1CCCCC1)C(=O)O; Tle = CC(C)(C)[C@H](N)C(=O)O; Aze = O=C(O)[C@@H]1CCN1; Sar = CNCC(=O)O

Biological target: TNFα (Homo sapiens, UniProt P01375)
Sequence (P01375 77-233 limits assumed): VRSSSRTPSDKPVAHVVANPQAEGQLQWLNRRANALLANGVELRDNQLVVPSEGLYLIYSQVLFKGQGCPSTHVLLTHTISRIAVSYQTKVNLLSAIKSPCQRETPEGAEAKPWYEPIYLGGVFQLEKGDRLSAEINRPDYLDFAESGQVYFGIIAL
Experiment: TNF-Induced HEK-Blue Assay
Format: cell-based
[1] = HEK-Blue-CD40L cells, NF-kB-driven secreted alkaline phosphatase reporter, TNFα 0.5 ng/ml, 18 h, read-out: TNF induced HEK-Blue assay IC50 value

| SMILES | IC50 [1] | IC50 |
| --- | --- | --- |
| CC[C@H](C)[C@@H]1NC(=O)[C@@H]2CCN2C(=O)[C@H]([C@@H](C)CC)NC(=O)[C@@H](CCCNC(=N)N)NC(=O)[C@H](CC(=O)O)NC(=O)[C@H](Cc2ccc(O)cc2)NC(=O)CN(C)C(=O)[C@H](Cc2ccc(-c3ccc(NC(=O)c4nn(C)c5ccccc45)cc3)cc2)NC(=O)[C@H](Cc2ccc(-c3ccccc3)cc2)NC(=O)[C@H](C(C)(C)C)NC(=O)CSC[C@@H](C(=O)NCC(N)=O)NC(=O)[C@H](CC(C)C)NC(=O)[C@H](Cc2ccc(O)cc2)NC1=O [Example 337] ({CH2CO}-[Tle][Bip][X5][Sar]YD[dR]I[Aze]IYLCG-NH2; thioether N-13) | 50 to 200 nM | – |
| CC(C)C[C@@H]1NC(=O)[C@H](CCCNC(=N)N)NC(=O)[C@H](C(C)C)NC(=O)[C@@H]2CCCN2C(=O)[C@H](C(C)C)NC(=O)[C@@H](CCCNC(=N)N)NC(=O)[C@H](CC(=O)O)NC(=O)[C@@H]2CCCN2C(=O)CN(C)C(=O)[C@H](Cc2ccc(-c3ccc(NC(=O)c4nn(C)c5ccccc45)cc3)cc2)NC(=O)[C@H](Cc2ccc(-c3ccccc3)cc2)NC(=O)[C@H](CN2CCOCC2)NC(=O)CSC[C@@H](C(=O)NCC(N)=O)NC1=O [Example 338] ({CH2CO}-[Ala(morpholin-4-yl)][Bip][X5][Sar]PD[dR]VPVRLCG-NH2; thioether N-13) | < 50 nM | – |
| CC(C)C[C@@H]1NC(=O)[C@H](Cc2ccccn2)NC(=O)[C@H](C(C)C)NC(=O)[C@@H]2CCCN2C(=O)[C@H](C(C)C)NC(=O)[C@@H](CCCNC(=N)N)NC(=O)[C@H](CC(=O)O)NC(=O)[C@H](Cc2ccc(O)cc2)NC(=O)CN(C)C(=O)[C@H](Cc2ccc(-c3ccc(NC(=O)c4nn(C)c5ccccc45)cc3)cc2)NC(=O)[C@H](Cc2ccc(-c3ccc(C(=O)O)cc3)cc2)NC(=O)[C@H](CC2CCCCC2)NC(=O)CSC[C@@H](C(=O)NCC(N)=O)NC1=O [Example 339] ({CH2CO}-[Cha][Bip(4'-COOH)][X5][Sar]YD[dR]VPV[2Pal]LCG-NH2; thioether N-13) | < 50 nM | – |
| CC(C)C[C@@H]1NC(=O)[C@H](Cc2ccc(O)cc2)NC(=O)[C@H](C(C)C)NC(=O)[C@@H]2CCCN2C(=O)[C@H](C(C)C)NC(=O)[C@@H](CCCNC(=N)N)NC(=O)[C@H](CC(=O)O)NC(=O)[C@@H]2CCCN2C(=O)CN(C)C(=O)[C@H](Cc2ccc(-c3ccc(NC(=O)c4nn(C)c5ccccc45)cc3)cc2)NC(=O)[C@H](Cc2ccc(-c3ccc(C(=O)O)cc3)cc2)NC(=O)[C@H](CC2CCCCC2)NC(=O)CSC[C@@H](C(=O)NCC(N)=O)NC1=O [Example 340] ({CH2CO}-[Cha][Bip(4'-COOH)][X5][Sar]PD[dR]VPVYLCG-NH2; thioether N-13) | < 50 nM | – |
| CC[C@H](C)[C@@H]1NC(=O)[C@@H](CCCNC(=N)N)NC(=O)[C@H](CC(=O)O)NC(=O)[C@H](Cc2cnc[nH]2)NC(=O)CN(C)C(=O)[C@H](Cc2ccc(-c3ccc(NC(=O)c4nn(C)c5ccccc45)cc3)cc2)NC(=O)[C@H](Cc2ccc(-c3ccccc3)cc2)NC(=O)[C@H](CC2CCCCC2)NC(=O)CSC[C@@H](C(=O)NCC(N)=O)NC(=O)[C@H](CC(C)C)NC(=O)[C@H](Cc2cnc[nH]2)NC(=O)[C@H](C(C)C)NC(=O)[C@@H]2CCCN2C1=O [Example 341] ({CH2CO}-[Cha][Bip][X5][Sar]HD[dR]IPVHLCG-NH2; thioether N-13) | < 50 nM | – |
| CC[C@H](C)[C@@H]1NC(=O)[C@@H](CCCNC(=N)N)NC(=O)[C@H](CC(=O)O)NC(=O)[C@H](Cc2cnc[nH]2)NC(=O)CN(C)C(=O)[C@H](Cc2ccc(-c3ccc(NC(C)=O)cc3)cc2)NC(=O)[C@H](Cc2ccc(-c3ccc(C(=O)NC)cc3)cc2)NC(=O)[C@H](CC2CCCCC2)NC(=O)CSC[C@@H](C(=O)NCC(N)=O)NC(=O)[C@H](CC(C)C)NC(=O)[C@H](Cc2cnc[nH]2)NC(=O)[C@H](C(C)C)NC(=O)[C@@H]2CCCN2C1=O [Example 342] ({CH2CO}-[Cha][Bip(4'-CONHMe)][Bip(4'-NHAc)][Sar]HD[dR]IPVHLCG-NH2; thioether N-13) | < 50 nM | – |
| CC(C)C[C@@H]1NC(=O)[C@H](CCCNC(=N)N)NC(=O)[C@H](C(C)C)NC(=O)[C@@H]2CCCN2C(=O)[C@H](C(C)C)NC(=O)[C@@H](CCCNC(=N)N)NC(=O)[C@H](CC(=O)O)NC(=O)[C@@H]2CCCN2C(=O)CN(C)C(=O)[C@H](Cc2ccc(-c3ccc(NC(=O)c4n[nH]c5ccccc45)cc3)cc2)NC(=O)[C@H](Cc2ccc(-c3ccccc3)cc2)NC(=O)[C@H](CN2CCOCC2)NC(=O)CSC[C@@H](C(=O)NCC(N)=O)NC1=O [Example 343] ({CH2CO}-[Ala(morpholin-4-yl)][Bip][X78][Sar]PD[dR]VPVRLCG-NH2; thioether N-13) | < 50 nM | – |
| CC(C)C[C@@H]1NC(=O)[C@H](CCCNC(=N)N)NC(=O)[C@H](C(C)C)NC(=O)[C@@H]2CCCN2C(=O)[C@H](C(C)C)NC(=O)[C@@H](CCCNC(=N)N)NC(=O)[C@H](CC(=O)O)NC(=O)[C@@H]2CCCN2C(=O)CN(C)C(=O)[C@H](Cc2ccc(-c3cccc(NC(=O)c4coc5ccccc45)c3)cc2)NC(=O)[C@H](Cc2ccc(-c3ccccc3)cc2)NC(=O)[C@H](CN2CCOCC2)NC(=O)CSC[C@@H](C(=O)NCC(N)=O)NC1=O [Example 344] ({CH2CO}-[Ala(morpholin-4-yl)][Bip][X17][Sar]PD[dR]VPVRLCG-NH2; thioether N-13) | < 50 nM | – |
| CC(C)C[C@@H]1NC(=O)[C@H](CCCNC(=N)N)NC(=O)[C@H](C(C)C)NC(=O)[C@@H]2CCCN2C(=O)[C@H](C(C)C)NC(=O)[C@@H](CCCNC(=N)N)NC(=O)[C@H](CC(=O)O)NC(=O)[C@@H]2CCCN2C(=O)CN(C)C(=O)[C@H](Cc2ccc(-c3cccc(NC(=O)c4nn(C)c5ncccc45)c3)cc2)NC(=O)[C@H](Cc2ccc(-c3ccccc3)cc2)NC(=O)[C@H](CN2CCOCC2)NC(=O)CSC[C@@H](C(=O)NCC(N)=O)NC1=O [Example 345] ({CH2CO}-[Ala(morpholin-4-yl)][Bip][X9][Sar]PD[dR]VPVRLCG-NH2; thioether N-13) | < 50 nM | – |
| CC(C)C[C@@H]1NC(=O)[C@H](CCCNC(=N)N)NC(=O)[C@H](C(C)C)NC(=O)[C@@H]2CCCN2C(=O)[C@H](C(C)C)NC(=O)[C@@H](CCCNC(=N)N)NC(=O)[C@H](CC(=O)O)NC(=O)[C@@H]2CCCN2C(=O)CN(C)C(=O)[C@H](Cc2ccc(-c3ccc(NC(=O)c4coc5ccccc45)cc3)cc2)NC(=O)[C@H](Cc2ccc(-c3ccccc3)cc2)NC(=O)[C@H](CN2CCOCC2)NC(=O)CSC[C@@H](C(=O)NCC(N)=O)NC1=O [Example 346] ({CH2CO}-[Ala(morpholin-4-yl)][Bip][X47][Sar]PD[dR]VPVRLCG-NH2; thioether N-13) | < 50 nM | – |
| CC(C)C[C@@H]1NC(=O)[C@H](CCCNC(=N)N)NC(=O)[C@H](C(C)C)NC(=O)[C@@H]2CCCN2C(=O)[C@H](C(C)C)NC(=O)[C@@H](CCCNC(=N)N)NC(=O)[C@H](CC(=O)O)NC(=O)[C@@H]2CCCN2C(=O)CN(C)C(=O)[C@H](Cc2ccc(-c3ccc(NC(=O)c4nn(C)c5ncccc45)cc3)cc2)NC(=O)[C@H](Cc2ccc(-c3ccccc3)cc2)NC(=O)[C@H](CN2CCOCC2)NC(=O)CSC[C@@H](C(=O)NCC(N)=O)NC1=O [Example 347] ({CH2CO}-[Ala(morpholin-4-yl)][Bip][X74][Sar]PD[dR]VPVRLCG-NH2; thioether N-13) | < 50 nM | – |
| CC(C)C[C@@H]1NC(=O)[C@H](CCCNC(=N)N)NC(=O)[C@H](C(C)C)NC(=O)[C@@H]2CCCN2C(=O)[C@H](C(C)C)NC(=O)[C@@H](CCCNC(=N)N)NC(=O)[C@H](CC(=O)O)NC(=O)[C@@H]2CCCN2C(=O)CN(C)C(=O)[C@H](Cc2ccc(-c3ccc(NC(=O)c4cn(C)c5ccccc45)cc3)cc2)NC(=O)[C@H](Cc2ccc(-c3ccccc3)cc2)NC(=O)[C@H](CN2CCOCC2)NC(=O)CSC[C@@H](C(=O)NCC(N)=O)NC1=O [Example 348] ({CH2CO}-[Ala(morpholin-4-yl)][Bip][X10][Sar]PD[dR]VPVRLCG-NH2; thioether N-13) | 50 to 200 nM | – |
| CC[C@H](C)[C@@H]1NC(=O)[C@@H](CCCNC(=N)N)NC(=O)[C@H](CC(=O)O)NC(=O)[C@H](Cc2cnc[nH]2)NC(=O)CN(C)C(=O)[C@H](Cc2ccc(-c3ccc(NC(=O)c4cccc(-c5ccccc5)c4)cc3)cc2)NC(=O)[C@H](Cc2ccc(-c3ccccc3)cc2)NC(=O)[C@H](CC2CCCCC2)NC(=O)CSC[C@@H](C(=O)NCC(N)=O)NC(=O)[C@H](CC(C)C)NC(=O)[C@H](Cc2cnc[nH]2)NC(=O)[C@H](C(C)C)NC(=O)[C@@H]2CCCN2C1=O [Example 349] ({CH2CO}-[Cha][Bip][Bip(4'-NH)](Benzoyl(3-Ph))[Sar]HD[dR]IPVHLCG-NH2; thioether N-13) | 200 to 2000 nM | – |
| CC[C@H](C)[C@@H]1NC(=O)[C@@H]2CCCN2C(=O)[C@H]([C@@H](C)CC)NC(=O)[C@@H](CCCNC(=N)N)NC(=O)[C@H](CC(=O)O)NC(=O)[C@H](Cc2ccccc2)NC(=O)CN(C)C(=O)[C@H](Cc2ccc(-c3ccc(NC(=O)c4ccccc4)cc3)cc2)NC(=O)[C@H](Cc2ccc(-c3ccc(C(=O)O)cc3)cc2)NC(=O)[C@H](C(C)(C)C)NC(=O)CSC[C@@H](C(=O)NCC(N)=O)NC(=O)[C@H](CC(C)C)NC(=O)[C@H](Cc2cnc[nH]2)NC1=O [Example 350] ({CH2CO}-[Tle][Bip(4'-COOH)][Bip(4'-NHBz)][Sar]FD[dR]IPIHLCG-NH2; thioether N-13) | – | < 50 nM |
| CC[C@H](C)[C@@H]1NC(=O)[C@@H]2CCCN2C(=O)[C@H]([C@@H](C)CC)NC(=O)[C@@H](CCCNC(=N)N)NC(=O)[C@H](CC(=O)O)NC(=O)[C@H](Cc2ccccc2)NC(=O)CN(C)C(=O)[C@H](Cc2ccc(-c3ccc(NC(=O)c4cccc(C(=O)O)c4)cc3)cc2)NC(=O)[C@H](Cc2ccc(-c3ccc(C(=O)O)cc3)cc2)NC(=O)[C@H](C(C)(C)C)NC(=O)CSC[C@@H](C(=O)NCC(N)=O)NC(=O)[C@H](CC(C)C)NC(=O)[C@H](Cc2cnc[nH]2)NC1=O [Example 351] ({CH2CO}-[Tle][Bip(4'-COOH)][Bip(4'-(3-HOOC-benzamido))][Sar]FD[dR]IPIHLCG-NH2; thioether N-13) | < 50 nM | – |
